Laboratory results published in PubChem BioAssay (NCI).
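1) Cells in 96-well plates. 2) Compound, 48 h, 5 concentrations. 3) Linear interpolation between surrounding doses. 4) Unreached endpoint = highest concentration. GI50 is the concentration that inhibits growth by half. TGI: concentration producing complete growth inhibition.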

Tests used:
Assay in all cases: inhibition of tumour cell growth, NCI panel, 48 h
786-0 renal = test system: 786-0 renal
ACHN renal = test system: ACHN renal
CAKI-1 renal = test system: CAKI-1 renal
CCRF-CEM leukemia = test system: CCRF-CEM leukemia
HCC-2998 colon = test system: HCC-2998 colon
HCT-15 colon = test system: HCT-15 colon
HT29 colon = test system: HT29 colon
KM12 colon = test system: KM12 colon
M14 melanoma = test system: M14 melanoma
MCF7 breast = test system: MCF7 breast
MOLT-4 leukemia = test system: MOLT-4 leukemia
NCI-H23 lung = test system: NCI-H23 lung
NCI-H460 lung = test system: NCI-H460 lung
NCI/ADR-RES ovarian = test system: NCI/ADR-RES ovarian
OVCAR-5 ovarian = test system: OVCAR-5 ovarian
OVCAR-8 ovarian = test system: OVCAR-8 ovarian
PC-3 prostate = test system: PC-3 prostate
RPMI-8226 leukemia = test system: RPMI-8226 leukemia
SK-MEL-2 melanoma = test system: SK-MEL-2 melanoma
SK-MEL-5 melanoma = test system: SK-MEL-5 melanoma
SK-OV-3 ovarian = test system: SK-OV-3 ovarian
SNB-19 CNS = test system: SNB-19 CNS
TK-10 renal = test system: TK-10 renal
A498 renal = test system: A498 renal
A549 NSCLC = test system: A549 NSCLC
COLO 205 colon = test system: COLO 205 colon
DU-145 prostate = test system: DU-145 prostate
HCT-116 colon = test system: HCT-116 colon
HL-60(TB) leukemia = test system: HL-60(TB) leukemia
HOP-62 NSCLC = test system: HOP-62 NSCLC
HOP-92 NSCLC = test system: HOP-92 NSCLC
HS 578T breast = test system: HS 578T breast
IGROV1 ovarian = test system: IGROV1 ovarian
K-562 leukemia = test system: K-562 leukemia
MALME-3M melanoma = test system: MALME-3M melanoma
MDA-MB-231 breast = test system: MDA-MB-231 breast
MDA-MB-435 = test system: MDA-MB-435
NCI-H226 lung = test system: NCI-H226 lung
NCI-H522 lung = test system: NCI-H522 lung
OVCAR-3 ovarian = test system: OVCAR-3 ovarian
OVCAR-4 ovarian = test system: OVCAR-4 ovarian
RXF 393 renal = test system: RXF 393 renal
SF-268 CNS = test system: SF-268 CNS
SF-295 CNS = test system: SF-295 CNS
SF-539 CNS = test system: SF-539 CNS
SK-MEL-28 melanoma = test system: SK-MEL-28 melanoma
SN12C renal = test system: SN12C renal
SNB-75 CNS = test system: SNB-75 CNS
SR leukemia = test system: SR leukemia
SW-620 colon = test system: SW-620 colon
T-47D breast = test system: T-47D breast
U251 CNS = test system: U251 CNS
UACC-257 melanoma = test system: UACC-257 melanoma
UACC-62 melanoma = test system: UACC-62 melanoma
UO-31 renal = test system: UO-31 renal

Cc1cn2c(/C=N/N=C(N)N)c(-c3cc(Cl)sc3Cl)nc2s1
GI50 (786-0 renal): 0.887 µM
TGI (786-0 renal): 1.83 µM
GI50 (ACHN renal): 0.908 µM
TGI (ACHN renal): 1.63 µM
GI50 (CAKI-1 renal): 6.18 µM
TGI (CAKI-1 renal): 26 µM
GI50 (CCRF-CEM leukemia): 0.76 µM
TGI (CCRF-CEM leukemia): 1.57 µM
GI50 (HCC-2998 colon): 0.888 µM
TGI (HCC-2998 colon): 1.6 µM
GI50 (HCT-15 colon): 1.84 µM
TGI (HCT-15 colon): 8.55 µM
GI50 (HT29 colon): 1.72 µM
TGI (HT29 colon): 12.1 µM
GI50 (KM12 colon): 0.736 µM
TGI (KM12 colon): 1.59 µM
GI50 (M14 melanoma): 0.874 µM
TGI (M14 melanoma): 1.56 µM
GI50 (MCF7 breast): 0.777 µM
TGI (MCF7 breast): 2.04 µM
GI50 (MOLT-4 leukemia): 1.17 µM
TGI (MOLT-4 leukemia): 2.06 µM
GI50 (NCI-H23 lung): 0.904 µM
TGI (NCI-H23 lung): 1.66 µM
GI50 (NCI-H460 lung): 1.74 µM
TGI (NCI-H460 lung): > 50 µM
GI50 (NCI/ADR-RES ovarian): 5.57 µM
TGI (NCI/ADR-RES ovarian): 13.3 µM
GI50 (OVCAR-5 ovarian): 0.886 µM
TGI (OVCAR-5 ovarian): 1.59 µM
GI50 (OVCAR-8 ovarian): 1.19 µM
TGI (OVCAR-8 ovarian): 2.9 µM
GI50 (PC-3 prostate): 0.8 µM
TGI (PC-3 prostate): 1.48 µM
GI50 (RPMI-8226 leukemia): 0.792 µM
TGI (RPMI-8226 leukemia): 1.73 µM
GI50 (SK-MEL-2 melanoma): 1.98 µM
TGI (SK-MEL-2 melanoma): > 50 µM
GI50 (SK-MEL-5 melanoma): 0.905 µM
TGI (SK-MEL-5 melanoma): 1.74 µM
GI50 (SK-OV-3 ovarian): 1.15 µM
TGI (SK-OV-3 ovarian): 2.78 µM
GI50 (SNB-19 CNS): 1.84 µM
TGI (SNB-19 CNS): > 50 µM
GI50 (TK-10 renal): 1.15 µM
TGI (TK-10 renal): 2.95 µM

O=C(O)CP(=O)(c1ccccc1)c1ccccc1.O=C(O)CP(=O)(c1ccccc1)c1ccccc1.[Cd]
GI50 (786-0 renal): 19.3 µM
TGI (786-0 renal): 60 µM
GI50 (A498 renal): 19.9 µM
TGI (A498 renal): 39.8 µM
GI50 (A549 NSCLC): 17.1 µM
TGI (A549 NSCLC): 35.1 µM
GI50 (ACHN renal): 16.1 µM
TGI (ACHN renal): 30.4 µM
GI50 (CAKI-1 renal): 22.7 µM
TGI (CAKI-1 renal): 38.9 µM
GI50 (COLO 205 colon): 31.8 µM
TGI (COLO 205 colon): > 100 µM
GI50 (DU-145 prostate): 19.4 µM
TGI (DU-145 prostate): 41.3 µM
GI50 (HCT-116 colon): 20 µM
TGI (HCT-116 colon): 47.3 µM
GI50 (HCT-15 colon): 9.21 µM
TGI (HCT-15 colon): 22.9 µM
GI50 (HL-60(TB) leukemia): 15.9 µM
TGI (HL-60(TB) leukemia): 60.7 µM
GI50 (HOP-62 NSCLC): 18.6 µM
TGI (HOP-62 NSCLC): 46.1 µM
GI50 (HOP-92 NSCLC): 18.4 µM
TGI (HOP-92 NSCLC): 33.7 µM
GI50 (HS 578T breast): 19.4 µM
TGI (HS 578T breast): > 100 µM
GI50 (HT29 colon): 18 µM
TGI (HT29 colon): 37.3 µM
GI50 (IGROV1 ovarian): 16.6 µM
TGI (IGROV1 ovarian): 37.1 µM
GI50 (K-562 leukemia): 15.1 µM
TGI (K-562 leukemia): 36.8 µM
GI50 (KM12 colon): 7.97 µM
TGI (KM12 colon): 22.7 µM
GI50 (M14 melanoma): 17.3 µM
TGI (M14 melanoma): 53.8 µM
GI50 (MALME-3M melanoma): 0.536 µM
TGI (MALME-3M melanoma): 3.76 µM
GI50 (MCF7 breast): 27.2 µM
TGI (MCF7 breast): > 100 µM
GI50 (MDA-MB-231 breast): 15.7 µM
TGI (MDA-MB-231 breast): 32.2 µM
GI50 (MDA-MB-435): 4.26 µM
TGI (MDA-MB-435): 22.4 µM
GI50 (MOLT-4 leukemia): 33.4 µM
TGI (MOLT-4 leukemia): 52.4 µM
GI50 (NCI-H226 lung): 12.7 µM
TGI (NCI-H226 lung): 28.6 µM
GI50 (NCI-H23 lung): 20.2 µM
TGI (NCI-H23 lung): 41.9 µM
GI50 (NCI-H460 lung): 3.9 µM
TGI (NCI-H460 lung): > 100 µM
GI50 (NCI-H522 lung): 0.403 µM
TGI (NCI-H522 lung): 2.77 µM
GI50 (NCI/ADR-RES ovarian): 21.9 µM
TGI (NCI/ADR-RES ovarian): 52.2 µM
GI50 (OVCAR-3 ovarian): 2.56 µM
TGI (OVCAR-3 ovarian): 15.4 µM
GI50 (OVCAR-4 ovarian): 13.3 µM
TGI (OVCAR-4 ovarian): 34.1 µM
GI50 (OVCAR-5 ovarian): 16 µM
TGI (OVCAR-5 ovarian): 30.6 µM
GI50 (OVCAR-8 ovarian): 32.7 µM
TGI (OVCAR-8 ovarian): > 100 µM
GI50 (PC-3 prostate): 18 µM
TGI (PC-3 prostate): 35.1 µM
GI50 (RPMI-8226 leukemia): 0.277 µM
TGI (RPMI-8226 leukemia): 0.991 µM
GI50 (RXF 393 renal): 68.8 µM
TGI (RXF 393 renal): > 100 µM
GI50 (SF-268 CNS): 37.3 µM
TGI (SF-268 CNS): > 100 µM
GI50 (SF-295 CNS): 30.5 µM
TGI (SF-295 CNS): > 100 µM
GI50 (SF-539 CNS): 11.4 µM
TGI (SF-539 CNS): 26.2 µM
GI50 (SK-MEL-2 melanoma): 19.6 µM
TGI (SK-MEL-2 melanoma): 75.3 µM
GI50 (SK-MEL-28 melanoma): 17.9 µM
TGI (SK-MEL-28 melanoma): 41.8 µM
GI50 (SK-MEL-5 melanoma): 2.19 µM
TGI (SK-MEL-5 melanoma): 13.3 µM
GI50 (SK-OV-3 ovarian): 20.2 µM
TGI (SK-OV-3 ovarian): 44.5 µM
GI50 (SN12C renal): 16.4 µM
TGI (SN12C renal): 31.1 µM
GI50 (SNB-19 CNS): 48.1 µM
TGI (SNB-19 CNS): > 100 µM
GI50 (SNB-75 CNS): 16 µM
TGI (SNB-75 CNS): 32.4 µM
GI50 (SR leukemia): 13.6 µM
TGI (SR leukemia): 31.8 µM
GI50 (SW-620 colon): 19.6 µM
TGI (SW-620 colon): 42.6 µM
GI50 (T-47D breast): 24 µM
TGI (T-47D breast): 73.3 µM
GI50 (TK-10 renal): 16.9 µM
TGI (TK-10 renal): 34.5 µM
GI50 (U251 CNS): 14.3 µM
TGI (U251 CNS): 28.9 µM
GI50 (UACC-257 melanoma): 15.4 µM
TGI (UACC-257 melanoma): 31.4 µM
GI50 (UACC-62 melanoma): 2.2 µM
TGI (UACC-62 melanoma): 6.31 µM
GI50 (UO-31 renal): 21.6 µM
TGI (UO-31 renal): 49.1 µM
